# Results: ChEMBL document CHEMBL1138616, “Molecular design, synthesis and docking study of benz[b]oxepines and 12-oxobenzo[c]phenanthridinones as topoisomerase 1 inhibitors” (Bioorg Med Chem Lett, 2009)
# Active and inactive are the calls of the source. The rule behind the calls is not given here.
# How the values were obtained:
# A549 = experiment: Cytotoxicity against human A549 cells by sulforhodamine B assay; format: functional, cell-based
# HL-60 = experiment: Cytotoxicity against human HL60 cells by sulforhodamine B assay; format: functional, cell-based
# HeLa = experiment: Cytotoxicity against human HeLa cells by sulforhodamine B assay; format: functional, cell-based
# [1] = biological target: T1, DNA topoisomerase 1 (Homo sapiens) (UniProt P11387); experiment: Inhibition of DNA topoisomerase 1 assessed as relaxation of supercoiled Escherichia coli pBR322 DNA at 100 uM
# T1 sequence (whole entry): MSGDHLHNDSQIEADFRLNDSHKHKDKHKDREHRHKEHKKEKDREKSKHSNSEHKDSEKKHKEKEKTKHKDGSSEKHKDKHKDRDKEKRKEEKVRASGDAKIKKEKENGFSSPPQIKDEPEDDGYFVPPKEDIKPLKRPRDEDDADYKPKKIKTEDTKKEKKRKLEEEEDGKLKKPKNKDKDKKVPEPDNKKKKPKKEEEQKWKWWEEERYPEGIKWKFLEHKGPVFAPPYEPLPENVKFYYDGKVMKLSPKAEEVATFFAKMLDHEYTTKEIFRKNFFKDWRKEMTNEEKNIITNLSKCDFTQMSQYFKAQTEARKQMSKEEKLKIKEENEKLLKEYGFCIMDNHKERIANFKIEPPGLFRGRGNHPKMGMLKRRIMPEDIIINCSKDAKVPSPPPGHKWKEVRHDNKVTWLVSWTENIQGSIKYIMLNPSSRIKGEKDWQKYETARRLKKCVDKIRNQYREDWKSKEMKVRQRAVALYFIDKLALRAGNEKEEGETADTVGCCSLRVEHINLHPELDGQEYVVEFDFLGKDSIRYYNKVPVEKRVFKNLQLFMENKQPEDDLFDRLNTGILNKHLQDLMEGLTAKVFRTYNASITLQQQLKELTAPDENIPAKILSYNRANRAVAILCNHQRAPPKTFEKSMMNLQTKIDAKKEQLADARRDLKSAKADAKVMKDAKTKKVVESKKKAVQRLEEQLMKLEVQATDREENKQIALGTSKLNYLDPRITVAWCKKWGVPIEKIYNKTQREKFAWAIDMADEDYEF
inhibition [1],SMILES,IC50 (A549),IC50 (HL-60),IC50 (HeLa)
inactive,CC1Oc2ccccc2-c2c1c1ccccc1c(=O)n2C (stereo unspecified),65.5 µM,30.1 µM,40.1 µM
inactive,COCOc1ccccc1-c1c(Br)c2ccc(C)cc2c(=O)n1C,82 µM,17.2 µM,17.8 µM
inactive,COc1ccc(Cn2c3c(c4cc(C)ccc4c2=O)CCOc2ccccc2-3)cc1,> 100 µM,9.26 µM,10.3 µM
11.9%,Cc1ccc2c3c(n(C)c(=O)c2c1)-c1ccccc1OCC3,30.3 µM,14.1 µM,8.76 µM
inactive,Cc1ccc2c(=O)n(C)c3c(c2c1)CCOc1ccccc1-3,61.3 µM,33.6 µM,41.6 µM
30.4%,Cc1ccc2c(=O)n(C)c3c(c2c1)C(C)Oc1ccccc1-3 (stereo unspecified),46 µM,29.1 µM,28.3 µM
40.7%,COCOc1ccccc1-c1c(Br)c2cc(OC)c(OC)cc2c(=O)n1C,> 100 µM,37.8 µM,99.3 µM
inactive,Cc1ccc2c3c(n(C)c(=O)c2c1)-c1ccccc1OC3C (stereo unspecified),66.9 µM,–,21.9 µM
98.2%,COc1cc2c3c(n(C)c(=O)c2cc1OC)-c1ccccc1OCC3,73 µM,34.8 µM,38.1 µM
inactive,COc1ccc(Cn2c3c(c4ccc(C)cc4c2=O)CCOc2ccccc2-3)cc1,4.56 µM,4.4 µM,4.54 µM
94.5%,COc1ccc(Cn2c3c(c4ccccc4c2=O)CCOc2ccccc2-3)cc1,11 µM,4.49 µM,4.78 µM
inactive,Cn1c2c(c3ccccc3c1=O)CCOc1ccccc1-2,66.8 µM,37.6 µM,19.7 µM
5.3%,COc1cc2c3c(n(C)c(=O)c2cc1OC)-c1ccccc1OC3C (stereo unspecified),13.8 µM,8.54 µM,9.02 µM

# Further lines, the compound ahead of its results:
SMILES,inhibition [1],IC50 (A549),IC50 (HL-60),IC50 (HeLa)
COc1ccc(Cn2c(-c3ccccc3O)c(Br)c3cc(C)ccc3c2=O)cc1,inactive,53 µM,24.4 µM,20.4 µM
CC[C@@]1(O)C(=O)OCc2c1cc1n(c2=O)Cc2cc3ccccc3nc2-1 [CAMPTOTHECIN],–,0.058 µM,0.089 µM,0.072 µM
COc1ccc(Cn2c(-c3ccccc3O)c(Br)c3ccccc3c2=O)cc1,inactive,71.2 µM,31.6 µM,36.8 µM
COCOc1ccccc1-c1cc2ccccc2c(=O)[nH]1,inactive,23.6 µM,0.62 µM,0.62 µM
C=COc1ccccc1-c1c(Br)c2cc(C)ccc2c(=O)n1Cc1ccc(OC)cc1,inactive,67.8 µM,29.2 µM,14.8 µM
C=COc1ccccc1-c1c(Br)c2ccccc2c(=O)n1Cc1ccc(OC)cc1,inactive,> 100 µM,59.5 µM,36.5 µM
COCOc1ccccc1-c1cc2cc(C)ccc2c(=O)n1C,inactive,99.8 µM,14.3 µM,28.6 µM
COCOc1ccccc1-c1cc2ccccc2c(=O)n1C,inactive,> 100 µM,59.5 µM,64.6 µM
COCOc1ccccc1-c1cc2cc(C)ccc2c(=O)[nH]1,inactive,> 100 µM,0.16 µM,0.17 µM
